Laboratory results reported in ChEMBL document CHEMBL4257222, “Use of small molecule inhibitors targeting eya tyrosine phosphatase” (2016).
Active and inactive are the calls of the source. The calls are words filed in the database; no cut-off is given here.

Tests used:
Aorta [1] = assay: Inhibition of branching in mouse aorta cultured in collagen gels assessed as reduction in number of branch-points at 7.5 uM by aortic ring sprouting assay; format: functional, tissue-based
Aorta [2] = assay: Inhibition of sprouting in mouse aorta cultured in collagen gels at 7.5 uM by aortic ring sprouting assay; format: functional, tissue-based
HUVEC [3] = assay: Inhibition of tube formation of HUVEC by matrigel tube-formation assay; format: functional, cell-based; details: Homo sapiens
MCF-10A = assay: Toxicity in human MCF10A cells expressing Eya2 (unknown origin) assessed as effect on cell proliferation of; format: cell-based
[4] = molecular target: T1, Protein phosphatase EYA2 (Homo sapiens) (UniProt O00167); assay: Inhibition of Eya2 (unknown origin) expressed in human MCF10A cells assessed as reduction in cell migration; format: cell-based
T1 sequence (whole entry): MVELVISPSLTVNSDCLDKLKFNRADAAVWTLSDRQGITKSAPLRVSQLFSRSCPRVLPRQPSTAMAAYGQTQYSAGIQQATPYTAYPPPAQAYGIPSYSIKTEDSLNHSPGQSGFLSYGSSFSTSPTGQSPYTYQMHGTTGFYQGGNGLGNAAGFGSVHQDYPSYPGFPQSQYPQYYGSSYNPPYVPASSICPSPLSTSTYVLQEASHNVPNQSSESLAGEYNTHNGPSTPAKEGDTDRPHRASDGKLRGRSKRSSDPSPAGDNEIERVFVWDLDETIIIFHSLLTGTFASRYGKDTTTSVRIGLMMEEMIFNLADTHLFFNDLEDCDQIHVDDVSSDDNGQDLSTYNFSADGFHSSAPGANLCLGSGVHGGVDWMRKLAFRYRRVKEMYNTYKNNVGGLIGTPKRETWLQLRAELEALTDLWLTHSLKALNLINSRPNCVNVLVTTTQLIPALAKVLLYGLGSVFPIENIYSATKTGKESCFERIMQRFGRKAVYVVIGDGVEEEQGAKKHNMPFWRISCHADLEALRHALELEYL

HUVEC [5] = assay: Inhibition of cell motility of HUVEC; format: functional, cell-based; details: Homo sapiens
Danio rerio [6] = species: Danio rerio; assay: Inhibition of angiogenesis in FLK1-GFP trangenic zebrafish model of angiogenesis assessed as induction of defects in developing vasculature measured after 24 hpf stage by fluorescence microscopy; format: functional, organism-based
HUVEC [7] = assay: Inhibition of tubulogenesis of HUVEC grown on growth factor-reduced matrigel at 7.5 uM by inverted microscopy; format: functional, cell-based; details: Homo sapiens
Danio rerio [8] = species: Danio rerio; assay: Inhibition of angiogenesis in FLK1-GFP trangenic zebrafish model of angiogenesis assessed as effect on vasculature exposed to compound starting at later stage (20 hpf) by fluorescence microscopy; format: functional, organism-based
Aorta [9] = assay: Inhibition of endothelial cell migration in VEGF165-stimulated […] mouse aortic rings incubated in collagen matrix assessed as reduction in microvascular density incubated for 10 days by aortic ring assay; format: functional, tissue-based
Mus musculus [10] = species: Mus musculus; assay: Inhibition of proliferative retinopathy in mouse model of oxygen-induced retinopathy assessed as reduction in formation of neovascular tufts at 50 to 100 pmole injected at P12 and measured at P16; format: functional, organism-based
[11] = system: T2, Protein phosphatase EYA2 (Homo sapiens), O00167 [D250N]; assay: Inhibition of Eya2 D250N mutant (unknown origin) expressed in human MCF10A cells assessed as reduction in cell migration; format: cell-based; details: concentration not given here
T2 sequence (whole entry): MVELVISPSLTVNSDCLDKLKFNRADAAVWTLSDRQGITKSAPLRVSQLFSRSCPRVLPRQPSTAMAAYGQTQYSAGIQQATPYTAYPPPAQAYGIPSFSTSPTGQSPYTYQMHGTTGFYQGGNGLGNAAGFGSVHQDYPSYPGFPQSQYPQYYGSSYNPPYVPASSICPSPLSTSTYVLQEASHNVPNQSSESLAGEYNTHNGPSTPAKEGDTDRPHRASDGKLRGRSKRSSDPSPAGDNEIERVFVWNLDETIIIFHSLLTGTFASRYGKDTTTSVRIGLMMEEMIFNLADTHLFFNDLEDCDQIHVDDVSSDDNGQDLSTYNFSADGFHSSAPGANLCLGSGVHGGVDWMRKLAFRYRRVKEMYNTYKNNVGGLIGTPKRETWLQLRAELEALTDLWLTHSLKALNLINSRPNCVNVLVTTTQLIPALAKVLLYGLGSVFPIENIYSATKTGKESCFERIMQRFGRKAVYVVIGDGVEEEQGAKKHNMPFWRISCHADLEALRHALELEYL

Mus musculus [12] = species: Mus musculus; assay: Inhibition of proliferative retinopathy in mouse model of oxygen-induced retinopathy assessed as reduction in revascularization into the vaso-obliterated area at 50 to 100 pmole injected at P12 and measured at P16; format: functional, organism-based
Danio rerio [13] = species: Danio rerio; assay: Inhibition of angiogenesis in FLK1-GFP trangenic zebrafish model of angiogenesis assessed as reduction in intersegmental vessel number and extension measured after 24 hpf stage by fluorescence microscopy; format: functional, organism-based
HUVEC [14] = assay: Toxicity in HUVEC assessed as effect on cell proliferation by MTT assay; format: cell-based; details: human
Aorta [15] = assay: Inhibition of endothelial cell migration in VEGF165-stimulated […] mouse aortic rings incubated in collagen matrix assessed as induction of shorter sprouts incubated for 10 days by aortic ring assay; format: functional, tissue-based
HUVEC [16] = assay: Toxicity in HUVEC assessed as reduction in cell proliferation incubated for 3 days by WST8 assay; format: cell-based; set-up: scale not given: the % may be the effect or the level left; details: human, 72 h
HUVEC [17] = assay: Inhibition of tube formation of HUVEC assessed as reduction of interconnecting cellular aggregates of endothelial cells after 20 hrs by matrigel tube-formation assay; format: functional, cell-based; details: Homo sapiens
HUVEC [18] = assay: Inhibition of tube formation of HUVEC assessed as induction of reduction in endothelial cells organization after 2 hrs by matrigel tube-formation assay; format: functional, cell-based; details: Homo sapiens
HUVEC [19] = assay: Inhibition of tube formation of HUVEC in presence of hight level of fetal bovine serum by matrigel tube-formation assay; format: functional, cell-based; details: Homo sapiens
HUVEC [20] = assay: Inhibition of tube formation of HUVEC assessed as induction of endothelial cells aggregation by matrigel tube-formation assay; format: functional, cell-based; details: Homo sapiens
HUVEC [21] = assay: Inhibition of tube formation of HUVEC assessed as induction of reduction in endothelial cells organization after 6 hrs by matrigel tube-formation assay; format: functional, cell-based; details: Homo sapiens
A673 = assay: Antitumor activity against human A673 cells xenografted in nude mouse assessed as inhibition tumor growth at 25 mg/kg/day, ip and measured every other day for 2 weeks; format: functional, organism-based
[22] = molecular target: T3, Protein phosphatase EYA3 (Homo sapiens) (UniProt Q99504); details: 50 uM
T3 sequence (whole entry): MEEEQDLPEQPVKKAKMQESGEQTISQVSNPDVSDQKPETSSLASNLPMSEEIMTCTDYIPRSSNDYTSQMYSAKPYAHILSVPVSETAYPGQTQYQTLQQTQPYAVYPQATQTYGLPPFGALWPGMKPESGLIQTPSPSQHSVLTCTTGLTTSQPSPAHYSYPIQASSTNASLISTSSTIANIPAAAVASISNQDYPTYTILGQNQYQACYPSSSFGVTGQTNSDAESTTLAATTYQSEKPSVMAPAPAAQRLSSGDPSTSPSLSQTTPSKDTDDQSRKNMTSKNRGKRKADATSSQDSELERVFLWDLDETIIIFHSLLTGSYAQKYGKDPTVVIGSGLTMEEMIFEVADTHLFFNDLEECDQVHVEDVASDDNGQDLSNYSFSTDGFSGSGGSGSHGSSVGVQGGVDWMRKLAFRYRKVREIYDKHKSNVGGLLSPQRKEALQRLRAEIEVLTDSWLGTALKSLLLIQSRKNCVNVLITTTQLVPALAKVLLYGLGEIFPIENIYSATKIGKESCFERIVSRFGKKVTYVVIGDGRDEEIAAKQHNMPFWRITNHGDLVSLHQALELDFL
Description: Inhibition of human Eya3 isoform 2 (127 to 573 residues) interaction with His-tagged SIX2 at 50 uM by Ni-NTA agarose gel based pull down assay

[23] = Selectivity index, ratio of IC50 for inhibition of PTP1B (unknown origin) by p-nitrophenylphosphate assay to IC50 for inhibition of mouse Eya3 catalytic domain (223 to 510 residues) by p-nitrophenylphosphate assay
HUVEC [24] = assay: Inhibition of tubulogenesis of HUVEC grown on growth factor-reduced matrigel at 2.5 uM by inverted microscopy; format: functional; details: Homo sapiens
HUVEC [25] = assay: Inhibition of tubulogenesis of HUVEC grown on growth factor-reduced matrigel by inverted microscopy; format: functional, cell-based; details: Homo sapiens
[26] = molecular target: T1, Protein phosphatase EYA2 (Homo sapiens); assay: Inhibition of Eya2 (unknown origin) expressed in human MCF10A cells assessed as reduction in cell migration at 1 uM; format: cell-based
Mus musculus [27] = species: Mus musculus; assay: Inhibition of post-natal retinal angiogenesis in postnatal mouse assessed as reduction in branch points at 100 uM injected into eyes at P0.5, P3 and P5; format: functional, organism-based

SMILES | inhibition (Aorta [1]) | inhibition (Aorta [2]) | inhibition (HUVEC [3]) | Activity (MCF-10A) | inhibition [4] | inhibition (HUVEC [5]) | inhibition (Danio rerio [6]) | inhibition (Danio rerio [8]) | inhibition (Aorta [9]) | inhibition (Mus musculus [10]) | inhibition [11] [%] | inhibition (Mus musculus [12]) | inhibition (Danio rerio [13]) | Activity (HUVEC [14]) | inhibition (Aorta [15]) | Activity (HUVEC [16]) | other results
CCCCc1oc2ccccc2c1C(=O)c1cc(I)c(O)c(I)c1 | Active | Active | inactive | – | – | – | – | – | – | – | – | – | – | – | – | – | –
CCc1oc2ccc(O)cc2c1C(=O)c1cc(Br)c(O)c(Br)c1 | Active | Active | inactive | – | – | – | – | – | – | – | – | – | – | – | – | – | –
CC(O)c1oc2ccccc2c1C(=O)c1cc(Br)c(O)c(Br)c1 (stereo not given) | Active | Active | – | – | – | – | – | – | – | – | – | – | – | – | – | – | –
CCCCc1oc2ccccc2c1C(=O)c1ccc(O)cc1 | – | – | – | Non-Toxic | Dose-dependent effect | Active | Dose-dependent effect | inactive | Dose-dependent effect | Active | < 10 | Active | Dose-dependent effect | Non-Toxic | Dose-dependent effect | – | inhibition (HUVEC [7]): Active
CC(O)CCc1oc2ccccc2c1C(=O)c1cc(I)c(O)c(I)c1 (stereo not given) | Active | Active | inactive | – | – | – | – | – | – | – | – | – | – | – | – | – | –
Cc1oc2ccccc2c1C(=O)c1ccc(O)c(I)c1 | Active | Active | inactive | – | – | – | – | – | – | – | – | – | – | – | – | – | –
CCc1oc2cc(O)ccc2c1C(=O)c1cc(Br)c(O)c(Br)c1 | Active | Active | Active | – | – | – | – | – | – | – | – | – | – | – | – | > 50% | inhibition (HUVEC [17]): Active; inhibition (HUVEC [18]): Active; inhibition (HUVEC [19]): inactive; inhibition (HUVEC [20]): Active; inhibition (HUVEC [21]): Active
Cc1oc2ccccc2c1C(=O)c1cc(I)c(O)c(I)c1 | Active | Active | inactive | – | – | – | – | – | – | – | – | – | – | – | – | – | –
CCc1oc2ccccc2c1C(=O)c1cc(Br)c(O)c(Br)c1 [BENZBROMARONE] | – | – | Active | Non-Toxic | Dose-dependent effect | Active | Dose-dependent effect | inactive | Dose-dependent effect | Active | < 10 | Active | Dose-dependent effect | Non-Toxic | Dose-dependent effect | Toxic | TGI (A673): Active; inhibition (HUVEC [7]): Active; inhibition [22]: inactive
CCc1oc2ccccc2c1C(=O)c1ccc(O)cc1 [BENZARONE] | – | – | Active | Non-Toxic | Dose-dependent effect | Active | Dose-dependent effect | inactive | Dose-dependent effect | Active | < 10 | Active | Dose-dependent effect | Non-Toxic | Dose-dependent effect | Toxic | Ratio IC50 [23]: > 100; inhibition at 2.5 µM (HUVEC [24]): 50%; inhibition (HUVEC [25]): Dose-dependent effect; inhibition [26]: > 50%; inhibition (Mus musculus [27]): Active
